Measured values reported in patent publication US4330529A, “Antibacterial composition” (Fujisawa Pharmaceutical Co., Ltd., priority 1979, dated 1982).
Where two headings read alike, the source gives them in different places.

How the values were obtained:
Escherichia coli 1341-27 = assay: MIC and FIC, Nutrient broth (Test 1); format: cell-based; conditions: for FIC: in 1:1 mixture C
Protocol: (§1) Further, in order to observe the degree of synergistic antimicrobial activity, Fractional Inhibitory Concentration (FIC) values and FIC Index were calculated from the determined MIC values according to the following calculation method, respectively.
(§2) In the case that the combination ratio of a mixture of monosodium salt of 3-(N-acetyl-N-hydroxyamino)propylphosphonic acid and monosodium salt of nocardicin A is m:n (by weight), each of FIC values and FIC indexes was calculated according to the following equations. [formula]

Escherichia coli 1341-35 = assay: MIC and FIC, Nutrient broth (Test 1); format: cell-based; conditions: for FIC: in 1:1 mixture C
Protocol: as §1, §2

[1] = system: Klebsiella pneumoniae 1391-2; assay: MIC and FIC, Nutrient broth (Test 1); format: cell-based; conditions: for FIC: in 1:1 mixture C
Protocol: as §1, §2

[2] = system: Klebsiella pneumoniae 1391-3; assay: MIC and FIC, Nutrient broth (Test 1); format: cell-based; conditions: for FIC: in 1:1 mixture C
Protocol: as §1, §2

[3] = system: Klebsiella pneumoniae 1391-5; assay: MIC and FIC, Nutrient broth (Test 1); format: cell-based; conditions: for FIC: in 1:1 mixture C
Protocol: as §1, §2

[4] = system: Pseudomonas aeruginosa 1101-64; assay: MIC and FIC, Nutrient broth (Test 1); format: cell-based; conditions: for FIC: in 1:1 mixture C
Protocol: as §1, §2

[5] = system: Pseudomonas aeruginosa 1101-66; assay: MIC and FIC, Nutrient broth (Test 1); format: cell-based; conditions: for FIC: in 1:1 mixture C
Protocol: as §1, §2

[6] = system: Pseudomonas aeruginosa 1101-67; assay: MIC and FIC, Nutrient broth (Test 1); format: cell-based; conditions: for FIC: in 1:1 mixture C
Protocol: as §1, §2

[7] = system: Pseudomonas aeruginosa 1101-68; assay: MIC and FIC, Nutrient broth (Test 1); format: cell-based; conditions: for FIC: in 1:1 mixture C
Protocol: as §1, §2

[8] = system: Serratia marcescens 1421-5; assay: MIC and FIC, Nutrient broth (Test 1); format: cell-based; conditions: for FIC: in 1:1 mixture C
Protocol: as §1, §2

[9] = system: Klebsiella pneumoniae 1391-1; assay: microbe, parasite or virus in culture; format: cell-based; conditions: for FIC: in 1:1 mixture C
Protocol: as §1, §2

[10] = system: Pseudomonas aeruginosa 1101-63; assay: microbe, parasite or virus in culture; format: cell-based; conditions: for FIC: in 1:1 mixture C
Protocol: as §1, §2

[11] = system: Serratia marcescens 1421-1; assay: microbe, parasite or virus in culture; format: cell-based; conditions: for FIC: in 1:1 mixture C
Protocol: as §1, §2

[12] = system: Serratia marcescens 1421-3; assay: microbe, parasite or virus in culture; format: cell-based; conditions: for FIC: in 1:1 mixture C
Protocol: as §1, §2

[13] = system: Serratia marcescens 1421-4; assay: microbe, parasite or virus in culture; format: cell-based; conditions: for FIC: in 1:1 mixture C
Protocol: as §1, §2

[14] = system: Pseudomonas aeruginosa 1101-5; format: in vivo, mice (ICR-strain male); conditions: P. aeruginosa 1101-5; for FIC: in 1:1 mixture C, from ED50; for ED50: s.c. 1 h after i.p. inoculation, survival at one week
Protocol: (§3) ICR-strain male mice weighing 23-25 g (10 mice per one group) were used. A prescribed amount of the pathogenic bacteria suspended in 5% aqueous mucin suspension (0.5 ml.) was inoculated intraperitoneally into each mouse. One hour after the inoculation, the antibiotics as mentioned in the following table were administered subcutaneously, and then survival of the test mice was measured one week after the infection to determine ED50 value.
(§4) Incidentally, FIC values and FIC index in this in vivo test also calculated from the determined ED50 values according to the following calculation method.
(§5) On the basis of the fact that the combination ratio of a mixture of monosodium salt of 3-(N-acetyl-N- hydroxyamino)propylphosphonic acid and monosodium salt of nocardicin A is 1:1 (by weight), each of FIC values and FIC index was calculated according to the following equations.
(§6) FIC of monosodium salt of 3-(N-acetyl-N-hydroxyamino)propylphosphonic acid=1/2 C'ab/A'o
(§7) FIC of monosodium salt of nocardicin A=1/2 C'ab/B'o
(§8) FIC index=1/2 C'ab/A'o+1/2 C'ab/B'o

[15] = system: Pseudomonas aeruginosa 1101-7; format: in vivo, mice (ICR-strain male); conditions: P. aeruginosa 1101-7; for FIC: in 1:1 mixture C, from ED50; for ED50: s.c. 1 h after i.p. inoculation, survival at one week
Protocol: as §3, §4, §5, §6, §7, §8

[16] = system: Klebsiella pneumoniae NCTC 418; assay: MIC and FIC, Nutrient agar (Tests 2, 3); format: cell-based; conditions: NCTC418, K. pneumoniae NCTC 418, 20 h
Protocol: (§9) After the incubation was carried out at 37° C. for 20 hours, MIC values were determined.

[17] = system: Salmonella typhimurium 1406; assay: MIC and FIC, Nutrient agar (Tests 2, 3); format: cell-based; conditions: Salmonella enterica, 20 h
[18] = system: Serratia marcescens 1421-4; assay: MIC and FIC, Nutrient agar (Tests 2, 3); format: cell-based; conditions: Serratia marcescens, 14214, 20 h
[19] = system: Proteus mirabilis 1432-75; assay: MIC and FIC, Nutrient agar (Tests 2, 3); format: cell-based; conditions: Proteus mirabilis, 143275, 20 h
[20] = system: Staphylococcus epidermidis 1601-1; assay: MIC and FIC, Nutrient agar (Tests 2, 3); format: cell-based; conditions: 16011, S. epidermidis 1601-1, 20 h
Protocol: as §9

[21] = system: Enterobacter cloacae 1401-4; assay: MIC and FIC, Nutrient agar (Tests 2, 3); format: cell-based; conditions: Enterobacter cloacae, 14014; E. cloacae 1401-4; 20 h; read-out: MIC
Citrobacter freundii 35 = assay: MIC and FIC, Nutrient agar (Tests 6, 7, 9); format: cell-based; conditions: Citrobacter freundii, 35, 18 h
Enterobacter aerogenes 7 = assay: MIC and FIC, Nutrient agar (Tests 6, 7, 9); format: cell-based; conditions: Klebsiella aerogenes; E. aerogenes 7; 18 h; read-out: MIC
Protocol: (§10) FIC values and FIC Index were calculated in substantially the same manner as described in Test 1.

Staphylococcus aureus 3 = assay: MIC and FIC, Nutrient agar (Tests 6, 7); format: cell-based; conditions: Staphylococcus aureus; S. aureus 3; 18 h; read-out: MIC
Protocol: as §10

## CC(=O)N(O)CCCP(=O)(O)O [A (Table 1), 3-(N-acetyl-N-hydroxyamino)propylphosphonic acid]
Escherichia coli 1341-27; E. coli 1341-27
  FIC: 0.125
Escherichia coli 1341-27; Escherichia coli, 134127, 20 h
  MIC: 200 mg/L
Escherichia coli 1341-35; E. coli 1341-35
  FIC: 0.250
Escherichia coli 1341-35; Escherichia coli, 134135, 20 h
  MIC: 100 mg/L
[1]; K. pneumoniae 1391-2
  FIC: < 0.250
[1]; Klebsiella pneumoniae, 13912, 20 h
  MIC: > 800 mg/L
[2]; K. pneumoniae 1391-3
  FIC: 0.250
[2]; Klebsiella pneumoniae, 13913, 20 h
  MIC: 800 mg/L
[3]; K. pneumoniae 1391-5
  FIC: 0.250
[3]; Klebsiella pneumoniae, 13915, 20 h
  MIC: 400 mg/L
[4]; P. aeruginosa 1101-64
  FIC: < 0.031
[4]; Pseudomonas aeruginosa, 110164, 20 h
  MIC: > 800 mg/L
[5]; P. aeruginosa 1101-66
  FIC: 0.125
[5]; Pseudomonas aeruginosa, 110166, 20 h
  MIC: 200 mg/L
[6]; P. aeruginosa 1101-67
  FIC: 0.250
[6]; Pseudomonas aeruginosa, 110167, 20 h
  MIC: 200 mg/L
[7]; P. aeruginosa 1101-68
  FIC: 0.031
[7]; Pseudomonas aeruginosa, 110168, 20 h
  MIC: 800 mg/L
[8]; S. marcescens 1421-5
  FIC: < 0.016
[8]; Serratia marcescens, 14215, 20 h
  MIC: > 800 mg/L
[9]; K. pneumoniae 1391-1
  FIC: 0.125
[9]; Klebsiella pneumoniae, 13911, 20 h
  MIC: 400 mg/L
[10]; P. aeruginosa 1101-63
  FIC: 0.063
[10]; Pseudomonas aeruginosa, 110163, 20 h
  MIC: 800 mg/L
[11]; S. marcescens 1421-1
  FIC: < 0.008
[11]; Serratia marcescens, 14211, 20 h
  MIC: > 800 mg/L
[12]; S. marcescens 1421-3
  FIC: < 0.063
[12]; Serratia marcescens, 14213, 20 h
  MIC: > 800 mg/L
[13]; S. marcescens 1421-4
  FIC: < 0.031
[13]; Serratia marcescens, 14214, 20 h
  MIC: > 800 mg/L
[14]
  FIC: < 0.018
  ED50: > 20 mg/mouse
[15]
  FIC: < 0.063
  ED50: > 20 mg/mouse

## N[C@H](CCOc1ccc(/C(=N/O)C(=O)N[C@H]2CN([C@@H](C(=O)O)c3ccc(O)cc3)C2=O)cc1)C(=O)O [B (Table 1), nocardicin A]
Escherichia coli 1341-27; E. coli 1341-27
  FIC: 0.250
Escherichia coli 1341-27; Escherichia coli, 134127, E. coli 1341-27, 20 h, read-out: MIC
  MIC: 100 mg/L
Escherichia coli 1341-35; E. coli 1341-35
  FIC: 0.250
Escherichia coli 1341-35; Escherichia coli, 134135, E. coli 1341-35, 20 h, read-out: MIC
  MIC: 100 mg/L
[1]; K. pneumoniae 1391-2
  FIC: 0.250
[1]; Klebsiella pneumoniae, 13912, K. pneumoniae 1391-2, 20 h, read-out: MIC
  MIC: 800 mg/L
[2]; K. pneumoniae 1391-3
  FIC: 0.250
[2]; Klebsiella pneumoniae, 13913, K. pneumoniae 1391-3, 20 h, read-out: MIC
  MIC: 800 mg/L
[3]; K. pneumoniae 1391-5
  FIC: 0.125
[3]; Klebsiella pneumoniae, 13915, K. pneumoniae 1391-5, 20 h, read-out: MIC
  MIC: 800 mg/L
[4]; P. aeruginosa 1101-64
  FIC: 0.125
[4]; Pseudomonas aeruginosa, 110164, P. aeruginosa 1101-64, 20 h, read-out: MIC
  MIC: 200 mg/L
[5]; P. aeruginosa 1101-66
  FIC: 0.250
[5]; Pseudomonas aeruginosa, 110166, P. aeruginosa 1101-66, 20 h, read-out: MIC
  MIC: 100 mg/L
[6]; P. aeruginosa 1101-67
  FIC: 0.250
[6]; Pseudomonas aeruginosa, 110167, P. aeruginosa 1101-67, 20 h, read-out: MIC
  MIC: 200 mg/L
[7]; P. aeruginosa 1101-68
  FIC: 0.250
[7]; Pseudomonas aeruginosa, 110168, P. aeruginosa 1101-68, 20 h, read-out: MIC
  MIC: 100 mg/L
[8]; S. marcescens 1421-5
  FIC: 0.063
[8]; Serratia marcescens, 14215, S. marcescens 1421-5, 20 h, read-out: MIC
  MIC: 200 mg/L
[9]; K. pneumoniae 1391-1
  FIC: 0.063
[9]; Klebsiella pneumoniae, 13911, K. pneumoniae 1391-1, 20 h, read-out: MIC
  MIC: 800 mg/L
[10]; P. aeruginosa 1101-63
  FIC: 0.125
[10]; Pseudomonas aeruginosa, 110163, P. aeruginosa 1101-63, 20 h, read-out: MIC
  MIC: 400 mg/L
[11]; S. marcescens 1421-1
  FIC: 0.063
[11]; Serratia marcescens, 14211, S. marcescens 1421-1, 20 h, read-out: MIC
  MIC: 100 mg/L
[12]; S. marcescens 1421-3
  FIC: 0.125
[12]; Serratia marcescens, 14213, S. marcescens 1421-3, 20 h, read-out: MIC
  MIC: 400 mg/L
[13]; S. marcescens 1421-4
  FIC: 0.063
[13]; Serratia marcescens, 14214, S. marcescens 1421-4, broth, 20 h, read-out: MIC
  MIC: 400 mg/L
[16]
  MIC: 200 mg/L
[17]; S. typhimurium 1406, read-out: MIC
  MIC: 25 mg/L
[18]
  MIC: 25 mg/L
[19]
  MIC: 3.13 mg/L
[14]
  FIC: 0.273
  ED50: 1.3 mg/mouse
[15]
  FIC: 0.083
  ED50: 15.0 mg/mouse

## CC1(C)S[C@@H]2[C@H](NC(=O)C(C(=O)O)c3ccsc3)C(=O)N2[C@H]1C(=O)O (stereo partly drawn) [B (Table 4), ticarcillin]
[20]
  MIC: 3.13 mg/L
[16]
  MIC: 100 mg/L
[17]; TYPHIMURIUM
  MIC: 1.56 mg/L
[18]
  MIC: 25 mg/L
[21]
  MIC: 50 mg/L
[19]
  MIC: 0.78 mg/L

## NC[C@H]1O[C@H](O[C@H]2[C@H](O)[C@@H](O[C@H]3O[C@H](CO)[C@@H](O)[C@H](N)[C@H]3O)[C@H](N)C[C@@H]2N)[C@H](N)C[C@@H]1O [B (Table 9), Tobramycin]
Citrobacter freundii 35
  MIC: 3.13 mg/L
Enterobacter aerogenes 7
  MIC: 6.25 mg/L
Staphylococcus aureus 3
  MIC: 0.39 mg/L
